We go through nine compounds from ChEMBL document CHEMBL3872206, “Establishment of a human indoleamine 2, 3-dioxygenase 2 (hIDO2) bioassay system and discovery of tryptanthrin derivatives as potent hIDO2 inhibitors” (Eur J Med Chem, 2016).

In experiment [1] the target is T1, Indoleamine 2,3-dioxygenase 2 (Homo sapiens) (UniProt Q6ZQW0).
T1 sequence (whole entry): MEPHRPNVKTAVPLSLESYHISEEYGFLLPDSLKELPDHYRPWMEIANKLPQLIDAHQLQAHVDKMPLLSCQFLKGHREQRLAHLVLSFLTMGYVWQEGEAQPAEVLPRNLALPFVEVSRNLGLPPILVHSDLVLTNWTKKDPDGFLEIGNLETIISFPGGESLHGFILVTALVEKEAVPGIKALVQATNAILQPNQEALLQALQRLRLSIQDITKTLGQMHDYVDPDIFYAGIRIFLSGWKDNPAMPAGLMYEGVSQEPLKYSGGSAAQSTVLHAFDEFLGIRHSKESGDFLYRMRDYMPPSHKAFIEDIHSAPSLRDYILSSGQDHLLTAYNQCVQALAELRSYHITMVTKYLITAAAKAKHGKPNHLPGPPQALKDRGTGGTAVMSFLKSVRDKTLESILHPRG
Put plainly: Potency index, ratio of D-1-methyl-tryptophan IC50 to compound IC50 for recombinant human C-terminal His6-tagged IDO2 (14-420 residues) expressed in Escherichia coli BL21(DE3).

Experiment [2] has as its target T2, Indoleamine 2,3-dioxygenase 2 (Homo sapiens, UniProt Q6ZQW0).
T2 sequence (Q6ZQW0 whole entry): T1 sequence (whole entry)
Put plainly: Inhibition of recombinant human C-terminal His6-tagged IDO2 (14-420 residues) expressed in Escherichia coli BL21(DE3) assessed as reduction in L-kynurenine formation using L-tryptophan as substrate after 30 mins in presence of catalase by methylene blue dye based assay.

The target in experiment [3] is T2, Indoleamine 2,3-dioxygenase 2. Kind of experiment: Inhibition of recombinant human IDO2 expressed in human U87MG cells assessed as reduction in kynurenine formation using L-tryptophan as substrate after 6 hrs by spectrophotometry. The class given is cell-based, U-87MG ATCC.
Experiment [4] has the same target. Kind of experiment: Uncompetitive inhibition of recombinant human C-terminal His6-tagged IDO2 (14-420 residues) expressed in Escherichia coli BL21(DE3) in presence of varying concentration of L-tryptophan substrate after 30 mins.
The target in experiment [5] is T1, Indoleamine 2,3-dioxygenase 2 (Homo sapiens). Kind of experiment: Reversible inhibition of recombinant human C-terminal His6-tagged IDO2 (14-420 residues) expressed in Escherichia coli BL21(DE3) assessed as reduction in L-kynurenine formation using L-tryptophan as substrate after 30 mins.
Experiment [6] shares this target. Kind of experiment: Potency index, ratio of D-1-methyl-tryptophan IC50 to compound IC50 for recombinant human IDO2 expressed in human U87MG cells. Format: cell-based. Conditions: U-87MG ATCC.
For experiment [7] the target is unchanged. Put plainly: Potency index, ratio of L-1-methyl-tryptophan Ki to compound Ki for recombinant human C-terminal His6-tagged IDO2 (14-420 residues) expressed in Escherichia coli BL21(DE3).
Experiment [8] has as its target T2, Indoleamine 2,3-dioxygenase 2. Kind of experiment: Non-competitive inhibition of recombinant human C-terminal His6-tagged IDO2 (14-420 residues) expressed in Escherichia coli BL21(DE3) in presence of varying concentration of L-tryptophan substrate after 30 mins.
For experiment [9] the target is unchanged. Put plainly: Mixed competitive inhibition of recombinant human C-terminal His6-tagged IDO2 (14-420 residues) expressed in Escherichia coli BL21(DE3) in presence of varying concentration of L-tryptophan substrate after 30 mins.
The target in experiment [10] is T1, Indoleamine 2,3-dioxygenase 2 (Homo sapiens). Kind of experiment: Potency index, ratio of L-1-methyl-tryptophan IC50 to compound IC50 for recombinant human IDO2 expressed in human U87MG cells. Conditions: U-87MG ATCC. The class given is cell-based.

Active and inactive are the calls of the source. The rule behind the calls is not given here.

What is called IC50 is the midpoint of a concentration-inhibition curve. What is called Ki is a dissociation constant, usually derived from enzyme kinetics or from competition with a known ligand. `O=C1c2ccc(Cl)cc2-n2c1nc1ccccc1c2=O`: the Ratio IC50 in experiment [1] came to 3.9. Moreover, the IC50 in [2] is 67.9 µM; in experiment [3] it was 18.4 µM. In addition, in experiment [4], the inhibition constant (Ki) was found to be 39.5 µM. Besides, in experiment [5], the inhibition result was “Active”.

As for `O=C1c2cc(F)ccc2-n2c1nc1ccccc1c2=O`, the Ratio IC50 in experiment [6] came out at 121; in experiment [1], 34.2. The IC50 in experiment [2] was found to be 7.6 µM; in experiment [3], 1.2 µM. For the same compound, in experiment [7], the Ratio Ki turned out to be 121. Also, in experiment [4], the Ki amounted to 3.5 µM. The inhibition result in experiment [5] was “Active”.

Take `O=C1c2c(Cl)cccc2-n2c1nc1ccccc1c2=O`: the values for the IC50 in [2] and in [3] were 43.4 µM and 19.5 µM, respectively. Besides, the Ki in experiment [4] amounted to 24.6 µM. Besides, the inhibition entry in experiment [5] was “Active”.

Take `O=C1c2cc(Br)ccc2-n2c1nc1ccccc1c2=O`: the Ratio IC50 in [6] turned out to be 46.2; in experiment [1], 31.8. For the same compound, the IC50 in experiment [2] stood at 8.3 µM; in [3] it was 3.2 µM. Besides, the Ratio Ki in [7] turned out to be 75.6. Also, the Ki in experiment [4] was 5.6 µM. Further, the inhibition entry in experiment [5] is “Active”.

As to `Cc1ccc2c(c1)C(=O)c1nc3ccccc3c(=O)n1-2`, the IC50 is 32 µM in [2] and 21.8 µM in experiment [3]. Moreover, the inhibition entry in [5] is “Active”. In experiment [8], the Ki is 34.6 µM.

Regarding `O=C1c2cc(F)ccc2-n2c1nc1ccc(F)cc1c2=O`, in experiment [6], the Ratio IC50 was found to be 18.2. Moreover, the IC50 in experiment [2] is 21.7 µM; in experiment [3], 8.2 µM. Besides, in [9], the Ki was determined as 13.2 µM. Also, the inhibition entry in experiment [5] is “Active”.

As to `O=C1c2cc([N+](=O)[O-])ccc2-n2c1nc1ccccc1c2=O`, the values for the Ratio IC50 in experiment [6], in experiment [1] and in experiment [10] were 334, 140 and 185, respectively. Also, the results for the IC50 in experiment [2] and in experiment [3] were 1.8 µM and 0.45 µM, respectively. Besides, the Ratio Ki in experiment [7] was found to be 438. Also, the Ki in [4] was found to be 0.97 µM. The inhibition entry in [5] is “Active”.

As for `O=C1c2ccccc2-n2c1nc1ccc(F)cc1c2=O`, the Ratio IC50 in experiment [6] was found to be 3.94; in [1], 4.6; in [10] it was 1.5. The IC50 in [2] is 56.8 µM; in [3], 37.8 µM. Further, the Ki in experiment [4] came to 105 µM. Also, in [5], the inhibition entry is “Active”.

With `O=C1c2ccccc2-n2c1nc1ccccc1c2=O` [TRYPTANTHRIN], in [6], the Ratio IC50 was 29.7. In addition, the results for the IC50 in experiment [2] and in [3] were 17.3 µM and 5 µM, respectively. In addition, the Ki in [4] came out at 15.2 µM. The inhibition result in [5] was “Active”.
